Assay results as given in patent EP0332216A1 (priority 1988, dated 1989).

Key:
Solubility to solvent = type: physicochemical
yeast = assay: Anti-microbial activity in vitro (yeast); type: cell-based; conditions: concentration of 500 µg/mℓ
bacteria = assay: Anti-microbial activity in vitro (bacteria); type: cell-based; conditions: concentration of 500 µg/mℓ
[1] = Acute toxicity in mice (intraperitoneal); conditions: mouse, in vivo, ip; JCL/ICR male mice, 5 weeks; administration into the peritoneal cavity; mortality after two weeks; read-out: LD₅₀
filamentous fungi = assay: Anti-microbial activity in vitro (filamentous fungi); type: cell-based; conditions: concentration of 500 µg/mℓ

SMILES: CC1=C(C(=O)O)COC1=O [F-0368]
- Solubility to Solvent (Solubility to solvent; acetone): Readily soluble
- Solubility to Solvent (Solubility to solvent; benzene): Non-soluble
- Solubility to Solvent (Solubility to solvent; chloroform): Non-soluble
- Solubility to Solvent (Solubility to solvent; ethanol): Readily soluble
- Solubility to Solvent (Solubility to solvent; ethyl acetate): Soluble
- Solubility to Solvent (Solubility to solvent; hexane): Non-soluble
- Solubility to Solvent (Solubility to solvent; methanol): Readily soluble
- Solubility to Solvent (Solubility to solvent; water): Soluble
- anti-microbial activity in vitro (yeast): did not indicate its anti-microbial activity
- anti-microbial activity in vitro (bacteria): did not indicate its anti-microbial activity
- LD50 at 336 h [1]: ~200 mg/kg
- anti-microbial activity in vitro (filamentous fungi): did not indicate its anti-microbial activity
